Data published in ChEMBL document CHEMBL4689842, “EUbOPEN Chemogenomics Library wave 1” (2021).

Tested on: HEK-293T
Experiment: Incucyte cell viability with HEK293T; note: filed as whole numbers so only -1 and 0 and 1 occur
Assay type: toxicity, cell-based
Conditions: human, 10 µM, compound concentration 10 uM
[1] = 0 h, replicate number 1, timepoint 0 hours
[2] = 6 h, replicate number 1, timepoint 6 hours
[3] = 12 h, replicate number 1, timepoint 12 hours
[4] = 18 h, replicate number 1, timepoint 18 hours
[5] = 24 h, replicate number 1, timepoint 24 hours
[6] = 6 h, replicate number 2, timepoint 6 hours
[7] = 0 h, replicate number 2, timepoint 0 hours
[8] = 12 h, replicate number 2, timepoint 12 hours

| Structure (SMILES) | Growth Rate [1] | Growth Rate [2] | Growth Rate [3] | Growth Rate [4] | Growth Rate [5] | Growth Rate [6] | Growth Rate (24 h, replicate number 2, timepoint 24 hours) | Growth Rate [7] | Growth Rate [8] |
| --- | --- | --- | --- | --- | --- | --- | --- | --- | --- |
| C#Cc1cccc(Nc2ncnc3cc(OCCOC)c(OCCOC)cc23)c1 [ERLOTINIB] | 0 | 0 | 0 | 0 | 0 | – | – | – | – |
| CC(C)NC(=O)N1CC[C@H](NC2=Nc3cc(F)ccc3N(CC(F)F)c3ccc(Cl)cc32)C1 | 0 | – | 1 | 1 | 1 | 0 | 0 | – | – |
| CCc1ccc(OCc2ccccc2C(=O)Nc2ccc3nc(C)cc(N)c3c2)cc1.Cl | – | 0 | 0 | 0 | 0 | – | – | – | – |
| COC(=O)C1=C(C)NC(C)=C(C(=O)OCCCN2CCC(c3ccccc3)(c3ccccc3)CC2)[C@H]1c1cccc([N+](=O)[O-])c1 [NIGULDIPINE] | – | 0 | 0 | 0 | 0 | – | – | 0 | – |
| COc1cc(Nc2nccc(-c3cnn4nc(OC)ccc34)n2)cc(C(F)(F)F)c1 | – | 0 | 0 | 0 | 0 | – | – | – | – |
| CC(C)Oc1ccccc1C(=O)Nc1ccccc1C(=O)Nc1cccc(S(=O)(=O)C(F)(F)F)c1 | 0 | 0 | 0 | 0 | 0 | – | – | – | – |
| Cl.O=C(O)c1cc(-c2ccc(C3CCNCC3)cc2)c2ccc(-c3ccc(C(F)(F)F)cc3)cc2c1 | 0 | 0 | 0 | 0 | 0 | 1 | – | – | – |
| COc1ccccc1CN[C@H]1C2CCN(CC2)[C@H]1C(c1ccccc1)c1ccccc1 [CP-96345] | 1 | 0 | 0 | 0 | 0 | – | – | 0 | – |
| COc1cc2ncn(-c3cc(OCc4ccccc4C(F)(F)F)c(C(N)=O)s3)c2cc1OC [GW843682X] | 0 | – | 0 | 0 | 0 | – | – | – | – |
| CNCc1ccccc1-c1csc([C@@H](C)Nc2nc(C)nc3cc(OC)c(OC)cc23)c1 [BAY-293] | – | 0 | 0 | 0 | 0 | – | – | – | – |
| CC1=C(C(=O)Nc2cc3cn[nH]c3cc2F)C(c2ccc(C(F)(F)F)cc2)CC(=O)N1 (stereo not given) | 0 | – | – | – | 1 | – | – | – | – |
| Cc1cc(C)c(-n2ccn3nc(-c4cccnc4)cc23)cc1NC(=O)c1cc(C#N)cc(S(F)(F)(F)(F)F)c1 [BAY-826] | 0 | 0 | 0 | 0 | 0 | – | – | – | – |
| CC(C)CC(=O)Nc1[nH]nc2c1CN(C(=O)C1CCN(C)CC1)C2(C)C [PHA-793887] | 1 | 0 | 0 | 0 | 0 | – | – | – | – |
| Cc1cc(NC(=O)c2cccc(S(F)(F)(F)(F)F)c2)cc(-n2ccn3nc(-c4cccnc4)cc23)c1 [BAY-309] | 1 | 0 | 0 | 0 | 0 | – | – | – | – |
| CN(c1ccccc1CNc1nc(Nc2ccc3c(c2)CC(=O)N3)ncc1C(F)(F)F)S(C)(=O)=O | – | 0 | 0 | 0 | 0 | – | – | – | – |
| O=c1[nH]c2ccccc2n1C1CCN(Cc2ccc(-c3[nH]c4cc5ncnc5cc4nc3-c3ccccc3)cc2)CC1 | – | 0 | 0 | 0 | 0 | – | – | 1 | – |
| CC(C)(C)NC[C@H](O)COc1nsnc1N1CCOCC1 [TIMOLOL] | 0 | 0 | 0 | 0 | 0 | – | – | – | 1 |
| O=c1cc(N2CCOCC2)oc2c(-c3cccc4c3sc3ccccc34)cccc12 | – | 0 | 0 | 0 | 0 | – | – | – | – |
| CN1CCN(Cc2ccc(Nc3ncc(Cl)c(Nc4ccccc4S(=O)(=O)N(C)C)n3)cc2)CC1 [DUBERMATINIB] | 0 | – | 1 | 0 | 0 | 0 | – | 1 | 0 |

| Structure (SMILES) | Growth Rate [1] | Growth Rate [2] | Growth Rate [3] | Growth Rate [4] | Growth Rate [5] | Growth Rate [6] | Growth Rate (24 h, replicate number 2, timepoint 24 hours) | Growth Rate [7] | Growth Rate [8] |
| --- | --- | --- | --- | --- | --- | --- | --- | --- | --- |
| CCc1nn(CCCN2CCN(c3cccc(Cl)c3)CC2)c(=O)n1CCOc1ccccc1.Cl [NEFAZODONE HYDROCHLORIDE] | – | 0 | 0 | 0 | 0 | – | – | 0 | – |
| CNC(=O)c1ccc(Nc2ncc(C(F)(F)F)c(NCc3nccnc3N(C)S(C)(=O)=O)n2)cc1 [DEFACTINIB] | 1 | 0 | 0 | 0 | 0 | – | – | – | – |
| CN1CCN(Cc2cc(NC(=O)c3ccc4c(c3)CN(c3ccccc3)CC4)cc(C(F)(F)F)c2)CC1 | – | 0 | 0 | 0 | 0 | – | – | – | – |
| CNC(=O)Nc1ccc2c(c1)[C@@]1(CC2)OC(=O)N(CC(=O)N(Cc2ccc(F)cc2)[C@@H](C)C(F)(F)F)C1=O [A-486] | 1 | 0 | 0 | 0 | 0 | – | – | – | – |
| CNC(=O)Nc1ccc(-c2nc(N3CC4CCC(C3)O4)c3cnn(C4CCC5(CC4)OCCO5)c3n2)cc1 | – | 0 | 0 | 0 | 0 | – | – | – | – |
| CC(C)c1noc(N2CCC(COc3ccc(-c4ccc(S(C)(=O)=O)cc4)nc3)CC2)n1 [GSK-1292263] | – | 0 | 0 | 0 | 0 | – | – | 0 | – |
| CCCSc1nc(N[C@@H]2C[C@H]2c2ccc(F)c(F)c2)c2nnn([C@@H]3C[C@H](OCCO)[C@@H](O)[C@H]3O)c2n1 [TICAGRELOR] | – | 0 | 0 | 0 | 0 | – | – | 0 | – |
| C=CC(=O)Nc1cccc(Oc2nc(Nc3ccc(N4CCN(C)CC4)cc3OC)ncc2Cl)c1 | – | 0 | 0 | 0 | 0 | – | – | – | – |
| Cc1nc(N2CC[C@H](O)C2)ncc1-c1cc(C(F)(F)F)cc2[nH]ncc12 | 1 | 0 | 0 | 0 | 0 | – | – | – | – |
| C=CC(=O)Nc1ccc2[nH]c(=O)n(C3CCN(Cc4ccc(-c5nc6cc[nH]c(=O)c6cc5-c5ccccc5)cc4)CC3)c2c1 [Borussertib] | 0 | 0 | 0 | 0 | 0 | – | – | 1 | – |
| Cc1c[nH]c2nccc(Oc3c(F)cc(Nc4cc(Cl)nc(N)n4)cc3F)c12 [BAY-549] | 0 | 0 | 0 | 0 | 0 | – | – | – | – |
| Cc1cccc(CN2CCN(C(c3ccccc3)c3ccc(Cl)cc3)CC2)c1.Cl.Cl (stereo not given) | 1 | 0 | 0 | 0 | 0 | – | – | 0 | – |
| CC(C)OC(=O)N1CCC(Oc2ncnc3c2cnn3-c2ccc(S(C)(=O)=O)cc2F)CC1 | – | 0 | 0 | 0 | 0 | – | – | 1 | – |
| Cc1ccc2c(c1)c1c(n2CCc2ccc(C)nc2)CCN(C)C1 [LATREPIRDINE] | – | 0 | 0 | 0 | 0 | – | – | 0 | – |
| C[C@]1(O)C[C@@H](c2nc(-c3ccc4ccc(-c5ccccc5)nc4c3)c3c(N)nccn32)C1 [LINSITINIB] | – | 0 | 0 | 0 | 0 | – | – | 1 | – |
| C=CC(=O)Nc1cccc(Sc2nc(Nc3ccc(N4CCN(C)CC4)cc3)ncc2Cl)c1 | – | 0 | 0 | 0 | 0 | – | – | – | – |
| O=C(c1cc2c(cc1F)OC(c1ccc(F)cc1)(c1ccc(Cl)cc1Cl)O2)N1CCOCC1 (stereo not given) | 0 | 0 | 0 | 0 | 0 | – | – | – | – |
| C[C@]12CC[C@@H]3c4ccc(O)cc4CC[C@H]3[C@@H]1CC[C@@H]2O [ESTRADIOL] | 1 | 0 | 0 | 0 | 0 | – | – | 0 | – |
| COc1ccc(-c2ccc3ncc4c(c3c2)n(-c2ccc(N3CCNCC3)c(C(F)(F)F)c2)c(=O)n4C)cn1.O=C(O)/C=C\C(=O)O [BGT-226] | – | 0 | 0 | 0 | 0 | – | – | – | – |
